The text below walks through data of patent US20230382916A1, “HETEROARYL HETEROCYCLIC COMPOUNDS AND USES THEREOF” (HUTCHISON MEDIPHARMA LIMITED, priority 2020, published 2023).

The target of the assay is BTK recombinant protein (Homo sapiens (Human), UniProt Q06187). In words: Determination of biochemical BTK (Z'-LYTE kinase assay). As to conditions: 32 μM ATP.
Chain of BTK recombinant protein (Q06187 whole entry): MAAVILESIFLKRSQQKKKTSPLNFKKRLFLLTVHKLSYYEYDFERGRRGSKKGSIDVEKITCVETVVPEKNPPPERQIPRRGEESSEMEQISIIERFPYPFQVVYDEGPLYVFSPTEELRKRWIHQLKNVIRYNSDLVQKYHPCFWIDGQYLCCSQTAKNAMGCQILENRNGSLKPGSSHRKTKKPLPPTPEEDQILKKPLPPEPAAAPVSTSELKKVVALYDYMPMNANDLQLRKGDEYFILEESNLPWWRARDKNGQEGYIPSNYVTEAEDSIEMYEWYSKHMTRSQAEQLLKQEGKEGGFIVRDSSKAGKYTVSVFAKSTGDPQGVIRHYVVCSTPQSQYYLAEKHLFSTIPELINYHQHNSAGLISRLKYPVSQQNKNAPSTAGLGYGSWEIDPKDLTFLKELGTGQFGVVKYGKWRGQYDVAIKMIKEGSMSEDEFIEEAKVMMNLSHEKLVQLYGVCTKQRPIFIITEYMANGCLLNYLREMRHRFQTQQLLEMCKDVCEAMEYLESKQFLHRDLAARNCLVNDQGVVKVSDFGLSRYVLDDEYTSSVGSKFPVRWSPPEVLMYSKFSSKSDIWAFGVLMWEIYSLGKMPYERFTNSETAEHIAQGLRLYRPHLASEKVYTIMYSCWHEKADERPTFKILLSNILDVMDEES

Turning to `C[C@H]1CN(C2COC2)C[C@H](C)N1c1ccc(Nc2cc(-c3ccnc(-n4ccn5c6c(cc5c4=O)CC(C)(C)C6)c3CO)cn(C)c2=O)nc1` [Compound 1, 2-(5-((5-((2S,6S)-2,6-dimethyl-4-(oxetan-3-yl)piperazin-1-yl)pyridin-2-yl)amino)-3′-(hydroxymethyl)-1-methyl-6-oxo-1,6-dihydro-[3,4′-bipyridin]-2′-yl)-7,7-dimethyl-7,8-dihydro-2H-cyclopenta[4,5]pyrrolo[1,2-a]pyrazin-1(6H)-one], the IC50 (as a rule, the concentration needed to halve the response being measured) came out at 10 nM.
